# Results taken from patent US5686458A, “Quinazoline deriviates for treating peptic ulcer” (Yuhan Corporation, priority 1992, dated 1997).
# Structures can show the parent of a compound that is named as a salt.
# What was measured:
# [1] = biological target: T1, Proton Pump (H^+ /K^+ ATPase) (Oryctolagus cuniculus, UniProt P27112); assay: Inhibition of Proton Pump (H+/K+ ATPase) Activity, in vitro enzyme reaction (Experiment 1); format: biochemical, New Zealand white rabbit; details: for Effect ratio: IC50 of Omeprazole / IC50 of test compound; for IC50: K+-stimulated H+/K+ ATPase activity, rabbit gastric microsomes, pH 7.2, 37° C., 15 min prereaction, 30 min reaction, read-out: IC50 of test compound, inhibition (50%) of the proton pump activity
# T1 construct: The microsomes thus obtained were used as an enzyme source of the in vitro enzyme reaction study of proton pump; from tissue; host or cells: rabbit stomach, mucosal scrapings, microsomes (180,000 g pellet)
# T1 sequence (P27112 whole entry): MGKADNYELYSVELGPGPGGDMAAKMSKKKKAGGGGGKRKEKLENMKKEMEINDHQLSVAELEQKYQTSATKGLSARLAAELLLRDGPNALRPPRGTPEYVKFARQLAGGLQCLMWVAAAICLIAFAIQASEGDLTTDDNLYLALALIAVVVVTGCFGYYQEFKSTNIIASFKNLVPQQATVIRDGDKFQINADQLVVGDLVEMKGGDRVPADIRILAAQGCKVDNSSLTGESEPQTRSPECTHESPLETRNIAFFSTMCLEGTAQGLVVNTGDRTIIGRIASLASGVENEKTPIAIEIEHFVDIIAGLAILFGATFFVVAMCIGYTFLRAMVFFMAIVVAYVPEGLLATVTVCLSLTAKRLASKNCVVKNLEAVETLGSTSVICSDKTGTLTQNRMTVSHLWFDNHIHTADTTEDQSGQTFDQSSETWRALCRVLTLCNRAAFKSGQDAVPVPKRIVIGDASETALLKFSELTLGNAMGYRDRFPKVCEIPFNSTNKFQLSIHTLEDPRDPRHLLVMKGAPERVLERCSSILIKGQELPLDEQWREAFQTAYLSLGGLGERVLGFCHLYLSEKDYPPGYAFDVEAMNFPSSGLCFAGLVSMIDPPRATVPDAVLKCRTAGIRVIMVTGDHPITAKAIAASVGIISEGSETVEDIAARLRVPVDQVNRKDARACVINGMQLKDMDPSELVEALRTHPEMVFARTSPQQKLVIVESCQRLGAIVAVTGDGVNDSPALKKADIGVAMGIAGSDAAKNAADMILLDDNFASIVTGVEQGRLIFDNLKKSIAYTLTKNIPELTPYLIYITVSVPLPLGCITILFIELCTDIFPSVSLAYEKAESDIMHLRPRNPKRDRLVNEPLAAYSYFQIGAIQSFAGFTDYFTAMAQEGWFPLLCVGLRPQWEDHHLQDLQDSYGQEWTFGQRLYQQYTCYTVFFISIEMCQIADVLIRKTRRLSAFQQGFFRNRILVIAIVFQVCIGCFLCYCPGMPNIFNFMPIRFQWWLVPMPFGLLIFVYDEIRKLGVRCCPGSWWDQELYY
# T1 sequence (P18597 whole entry partner): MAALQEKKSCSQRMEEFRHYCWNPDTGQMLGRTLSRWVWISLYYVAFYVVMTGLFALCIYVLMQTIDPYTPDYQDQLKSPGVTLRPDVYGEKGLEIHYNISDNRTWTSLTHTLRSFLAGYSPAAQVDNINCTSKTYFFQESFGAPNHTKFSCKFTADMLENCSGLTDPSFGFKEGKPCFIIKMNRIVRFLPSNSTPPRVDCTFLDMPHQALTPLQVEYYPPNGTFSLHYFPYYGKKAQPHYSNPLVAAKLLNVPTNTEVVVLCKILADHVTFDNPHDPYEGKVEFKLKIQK
# Method: A New Zealand white rabbit was killed by blowing its head and the stomach was taken out. The contents of the stomach were removed and the stomach walls were washed with was saline. The inner wall of the stomach was scratched out with a slide glass and the cells thus obtained were homogenized in 0.25M sucrose buffer by means of a Teflon-glass homogenizer. The homogenous solution was centrifuged at 10,000 g for 10 minutes and the supernatant was further centrifuged at 20,000 g for 20 minutes. The supernatant thus obtained was centrifuged at an ultra-high speed of 180,000 g for 1 hour. The pellets precipitated were collected by discarding the supernatant and suspended in 50 mM Tris-HCl buffer having pH 7.2. The suspension was dialyzed twice with the same buffer(of 1,000 times volume) for 3 hours and stored into liquid nitrogen.
# The above centrifugation and dialysis were carried out at 4° C. The microsomes thus obtained were used as an enzyme source of the in vitro enzyme reaction study of proton pump.
# The inhibitory effects of proton pump activity by the compounds of the present invention were measured by the in vitro enzyme reaction study. The proton pump activity stimulated by Mg^++ was used as a negative comparative group, and the activity stimulated by Mg^++ and K^+ was used as a positive comparative group. The comparative compound was omeprazole.
# Test tubes were divided into 4 groups: Group 1 as negative comparative group(n=3), Group 2 as positive comparative group(n=3), Group 3(n=5) to be administered with the compound of the present invention and Group 4(n=5) to be administered with the comparative compound. The inhibitory effects of proton pump activity of Groups 3 and 4 were measured by employing the compound prepared in Example 34 and omeprazole, respectively, each of which was dissolved in dimethylsulfoxide at 5 different concentrations.
# To each of Groups 1, 2, 3 and 4, were added 0.1 ml of magnesium chloride(40 mM) dissolved in 50 mM Tris-HCl buffer (pH 7.2) and […] of the enzyme source prepared in Experiment 1-1. Then, 0.1 ml of potassium chloride(500 mM) and 0.1 ml of ammonium chloride(100 mM) dissolved in 50 mM Tris-HCl buffer(pH 7.2) were added to all groups except for Group 1.
# 0.1 ml of dimethylsulfoxide was added to each of Groups 1 and 2; and to Group 3 was added 0.01 ml of the solution in which the compound prepared in Example 34 was dissolved in dimethylsulfoxide at 5 different concentrations. To Group 4, 0.01 ml of the solution prepared by dissolving omprazole in dimethylsulfoxide at 5 different concentrations(37.6, 21.4, 12.2, 7.0 and 4.0 μM) was added. 50 mM Tris-HCl buffer was added thereto so as to make the total volume 0.4 ml.
# Thereafter, the test tubes of each Group were placed at 37° C. for 15 minutes for the prereaction. 0.1 ml of ATP solution(33.3 mM), which was prepared by adding Tris-ATP 50 mM to Tris-HCl buffer having pH 7.2, was added until the reaction volume became 0.5 ml. The final concentrations of MgCl2, KCl, NH4 Cl, ATP, enzyme and Tris-HCl were 8 mM, 100 mM, 20 mM, 6.7 mM, 100μg/ml and 50 mM, respectively. After the reaction was carried out at 37° C. for 30 minutes, 25% cold trichloroacetic acid was added to terminate the enzyme reaction. The released inorganic phosphate was measured by an automatic analyzer(SBA 300, Gilford).
# The difference between Group 1 and Group 2 represents the proton pump activity activated by K^+ only. The inhibition percentages of Groups 3 and 4 were calculated from Litchfield-wilcoxon equation[see J. Pharmacol. Exptl. Ther. 96, 99(1949)]. The concentrations of the test compounds which inhibit 50% of the proton pump activity are represented as IC50 in Table 1.
# gastric secretion = assay: Inhibition of Gastric Secretion, pylorus-ligated rats (Experiment 2); format: in vivo, Sprague-Dawley rats; details: relative to omeprazole (equation III), 20 mg/kg intraduodenally, pylorus-ligated rats, 5 hours
# Method: In accordance with the method disclosed in Shay, H., et al., Gastroenterology 5, 43-61(1945), Experiment 2 was carried out.
# Sprague-Dawley rats having a body weight of 170±10 g were divided into 3 groups(n=5) and deprived of food for 24 hours before the experiment with free access to water. Under ether anesthesia, the abdomen was incised, and the pylorus was ligated. As a comparative group, Group 1 was administered intraduodenally in a volume of 0.5 ml/200 g of 30% aqueous polyethylene glycol 400 solution. Groups 2 and 3 were administered intraduodenally with the compound of Example 34 and omeprazole, respectively, each of which was suspended in 30% aqueous polyethylene glycol 400 solution at a concentration of 20 mg/kg. After closing the abdominal cavity, the rats were placed for 5 hours and then killed by cervical dislocation. The stomach was extracted to obtain gastric juice.
# The gastric juice was centrifuged at 1,000 g to remove precipitates. The amount and acidity of the gastric juice were measured. Relative volumes, relative acid concentrations and relative acid outputs of the test compounds were calculated from equations(I), (II) and (III) and the results are shown in Table 2.
# (I) = the average amount of gastric juice of Group 1 - the
# average amount of gastric juice of Group 2)/(the average
# amount of gastric juice of Group 1 - the average amount
# of gastric juice of Group 3)
# Relative acid concentration
# (II) = (the average acidity of Group 1 - the average
# acidity of Group 2)/(the average acidity of Group 1 - the average
# (III) = (the total amount of acid output of Group 1 - the
# total amount of acid output of Group 2)/(the total amount of acid
# output of Group 1 - the total amount of acid output of Group
Effect ratio [1],IC50 [1],SMILES,Relative Acid Output (gastric secretion)
61.67,600 nM,"Cl.c1ccc(Nc2nc(N3CCc4ccccc4C3)c3ccccc3n2)cc1 [Example 18, 2-(Phenylamino)-4-(1,2,3,4-Tetrahydroisoquinoline-2-Yl)Quinazoline Hydrochloride]",0.29
1.83,5200 nM,"CN(c1ccccc1)c1nc(N2CCc3ccccc3C2)c2ccccc2n1 [Example 19, 2-(N-Methylphenylamino)-4-(1,2,3,4-Tetrahydroisoquinoline-2-Yl)QuinazolineHydrochloride]",0.68
1.10,8400 nM,"CN(c1ccc(F)cc1)c1nc(N2CCc3ccccc3C2)c2ccccc2n1.Cl [Example 20, 2-(4-Fluoro-N-Methylphenyl-Amino)-4-(1,2,3,4-Tetrahydroisoquinoline-2-Yl)Quinazoline Hydrochloride]",0.92
6.17,1200 nM,"Cc1ccccc1Nc1nc(N2CCc3ccccc3C2)c2ccccc2n1 [Example 21, 2-(2-Methylphenylamino)-4-(1,2,3,4-Tetrahydroisoquinoline-2-Yl)QuinazolineHydrochloride]",0.38
11.29,700 nM,"Cc1cc(F)ccc1Nc1nc(N2CCc3ccccc3C2)c2ccccc2n1.Cl [Example 22, 2-(4-Fluoro-2-Methylphenyl -Amino)-4-(1,2,3,4-Tetrahydroisoquinoline-2-Yl)Quinazoline Hydrochloride]",0.64
4.30,2000 nM,"Fc1ccc(Nc2nc(N3CCc4ccccc4C3)c3ccccc3n2)cc1 [Example 23, 2-(4-Fluorophenylamino)-4-(1,2,3,4-Tetrahydroisoquinoline-2-Yl)QuinazolineHydrochloride]",0.44
~ 1.29,~12500 nM,"CC1c2ccccc2CCN1c1nc(N(C)c2ccccc2)nc2ccccc12.Cl (stereo not drawn) [Example 24, 2-(N-Methylphenylamino)-4-(1-Methyl-1,2,3,4-Tetrahydroisoquinoline-2-Yl)Quinazoline Hydrochloride]",0.36
5.88,2700 nM,"CC1c2ccccc2CCN1c1nc(Nc2ccc(F)cc2)nc2ccccc12.Cl (stereo not drawn) [Example 25, 2-(4-Fluorophenylamino)-4-(1-Methyl-1,2,3,4-Tetrahydroisoquinoline-2-Yl)Quinazoline Hydrochloride]",0.50
46.00,400 nM,"Cc1cc(F)ccc1Nc1nc(N2CCc3ccccc3C2C)c2ccccc2n1.Cl (stereo not drawn) [Example 26, 2-(4-Fluoro-2-Methylphenyl-Amino)-4-(1-Methyl-1,2,3,4-Tetrahydroisoquinoline-2-Yl) Quinazoline Hydrochloride]",0.25
1.97,2900 nM,"Cc1cc(F)ccc1Nc1nc(N2CCc3cccc4c3C2CC4)c2ccccc2n1.Cl (stereo not drawn) [Example 27, 2-(4-Fluoro-2-Methylphenyl-Amino)-4-(1,8-Ethano-1,2,3,4-Tetrahydroisoquinoline-2-Yl) Quinazoline Hydrochloride]",0.30
6.92,1200 nM,"COc1cccc2c(N3CCc4ccccc4C3)nc(Nc3ccccc3)nc12.Cl [Example 28, 8-Methoxy-2-(phenylamino)-4-(1,2,3,4-Tetrahydroisoquinoline-2-Yl)Quinazoline Hydrochloride]",0.64
1.47,4900 nM,"COc1cccc2c(N3CCc4ccccc4C3)nc(N(C)c3ccccc3)nc12.Cl [Example 29, 8-Methoxy-2-(N-Methylphenyl-Amino)-4-(1,2,3,4-Tetrahydroisoquinoline-2-Yl)Quinazoline Hydrochloride]",0.84
3.27,2200 nM,"COc1cccc2c(N3CCc4ccccc4C3)nc(Nc3ccc(F)cc3)nc12.Cl [Example 30, 8-Methoxy-2-(4-Fluorophenyl-Amino)-4-(1,2,3,4-Tetrahydroisoquinoline-2-Yl)Quinazoline Hydrochloride]",0.76
5.13,2000 nM,"COc1cccc2c(N3CCc4ccccc4C3)nc(Nc3ccc(F)cc3C)nc12.Cl [Example 31, 8-Methoxy-2-(4-Fluoro-2-Methyl -Phenylamino)-4-(1,2,3,4-Tetrahydroisoquinoline-2-yl) Quinazoline Hydrochloride]",0.79
> 0.58,> 16000 nM,"COc1cccc2c(N3CCc4ccccc4C3)nc(N(C)c3ccc(F)cc3)nc12.Cl [Example 32, 8-Methoxy-2-(4-Fluoro-N-Methyl-Phenylamino)-4-(1,2,3,4-Tetrahydroisoquinoline-2-Yl) Quinazoline Hydrochloride]",0.43
1.22,2300 nM,"COc1cccc2c(N3CCc4ccccc4C3C)nc(Nc3ccc(F)cc3)nc12.Cl (stereo not drawn) [Example 33, 8-Methoxy-2-(4-Fluorophenyl-Amino)-4-(1-Methyl-1,2,3,4-Tetrahydroisoquinoline-2-Yl) Quinazoline Hydrochloride]",0.79
2.83,1800 nM,"COc1cccc2c(N3CCc4ccccc4[C@H]3C)nc(Nc3ccc(F)cc3C)nc12.Cl [Example 35, (R)-8-Methoxy-2-(4-Fluoro-2-Methylphenylamino)-4-(1-Methyl-1,2,3,4-Tetrahydroisoquinoline-2-Yl)Quinazoline Hydrochloride]",0.79
1.28,4000 nM,"COc1cccc2c(N3CCc4ccccc4[C@@H]3C)nc(Nc3ccc(F)cc3C)nc12.Cl [Example 36, (S)-8-Methoxy-2-(4Fluoro-2-Methylphenylamino)-4-(1-Methyl-1,2,3,4-Tetrahydroisoquinoline-2-Yl)Quinazoline Hydrochloride]",0.67
